The values below are quoted from earlier work in patent publication US20250268950A1, “PRENATAL SUPPLEMENT” (Arizona Board of Regents on Behalf of Arizona State …, priority 2021, published 2025).

In data set [1] the test system is non-pregnant women with polycystic ovary syndrome; diabetes.
The subject of data set [2] is pregnant women. The following applies: for decrease in anxiety symptoms / decrease in depression: RCT, 1 mg/day.
The conditions of data set [3]: for plasma level as % of level at 2500 mg: non-pregnant women.
The test system of data set [4] is infants.
Data set [5] has as its system pregnant women and their infants. The following applies: maternal blood levels in the highest quartile; 397 ASD, 1034 controls.
Data set [6] shares this test system. The following applies: prenatal with vitamin E and dietary intake in upper half (12.6-33.8 mg/day).
The mark [7] stands for this setting: diabetes, meta-analysis of 22 randomized controlled trials.

Read-outs that look alike come from different tables or passages of the source.

With `[Cr]` [Chromium], the pregnancy rate in data set [1] (200 i.g for eight weeks, non-pregnant women with polycystic ovary syndrome (vs. 3%)) is 17%. Moreover, the atypical depression result in data set [1] (400-600 i.g/day) is recorded as “helpful for atypical depression”. Also, in data set [1] (setting [7]), the adverse events entry was “no difference in the adverse events between chromium and placebo”; the “glycemic control and lipids” value was “improved glycemic control, reduced triglycerides, and increased HDL-C”. Besides, the “fasting plasma glucose and insulin levels” value in data set [2] (4 i.g/kg, 24 women with gestational diabetes, U.S.) is “significantly improved their fasting plasma glucose and insulin levels”.

As to `[Cu]` [Copper], in data set [2] (second trimester), the “decrease in anxiety symptoms” value is reported as 45% and the decrease in depression is 75%. Also, in data set [2] (third trimester), the “decrease in anxiety symptoms” value is listed as 80% and the decrease in depression is reported as 90%. In addition, the copper levels entry in data set [3] (2 mg as part of a multi-vitamin/mineral supplement, France) was “no difference in copper levels between treatment and placebo groups”. For the same molecule, under “Table 18”, the “Tolerable Upper Limit for Pregnant Women” value is 10 mg.

Take `O[C@H]1[C@H](O)[C@@H](O)[C@H](O)[C@@H](O)[C@H]1O` [Inositol, Myo-inositol]: the gestational diabetes result in data set [2] (2000 mg/day, 223 overweight, non-obese pregnant women) is “significant decrease in gestational diabetes compared to placebo”; in data set [2] (4000 mg/day, women at risk of gestational diabetes (vs. 25%)) it was 11%; in data set [2] (4 grams per day, at risk women) it was “greatly reduced gestational diabetes (GD)”. Further, the macrosomia in data set [4] (4000 mg/day, women at risk of gestational diabetes (vs 5.3%)) is on record as 2.1%. In data set [4] (4000 mg/day, women at risk of gestational diabetes (vs. 7.6%)), the preterm birth was 3.4%. The “large for gestational age” value in data set [4] (4000 mg/day, women at risk of gestational diabetes (vs. 8.9%)) is on record as 4.8%. Also, the side effects result (high doses up to 18 grams per day) is recorded as “Only some mild diarrhea” and the side effects result (less than 6 grams per day) is “zero side effects”.

In the case of `[Mg]` [Magnesium], the “rate of pregnancy-induced hypertension” value in data set [2] (Angola and China studies combined, 201 participants (vs. 21% placebo)) is reported as 4%. Also, in data set [2] (Angola study (vs. 58%)), the rate of edema is listed as 24%. Also, in data set [4] (300 mg/day of elemental magnesium, Brazil), the “perinatal and maternal composite outcome” value is “did not find any effect on perinatal composite outcome”. Besides, the “preterm birth, RR” value in data set [4] (metanalysis of six RCT's, 3068 pregnant women) is given as 0.58. In addition, the magnesium blood levels entry in data set [3] (345 mg/day) was “enough to keep magnesium levels stable”. For the same molecule, the tolerability result (supplementation studies, 184-500 mg/day) is “well-tolerated”.

Turning to `[Mn+2]` [Manganese], the “risk of ASD, OR” value in data set [5] is 1.84. Under “Table 18”, the “Tolerable Upper Limit for Pregnant Women” value is 11 mg.

Take `CC1=C(/C=C/C(C)=C/C=C/C(C)=C/CO)C(C)(C)CCC1` [Vitamin A, retinol]: in data set [2] (Nepal, 7000 mcg/week), the “reduction of night blindness during pregnancy” value is on record as 67%. For the same molecule, the “risk of anemia, RR” value in data set [2] (meta-analysis of 8 studies, supplementation) is on record as 0.81. Further, the “vitamin A levels lower than healthy non-pregnant controls” value in data set [3] (5000 IU/day (50% as beta carotene), first, second, third trimesters) is listed as 27%. Under “Table 12”, the “Tolerable Upper Limit for Pregnant Women” value was 3 mg.

Regarding `Cc1ncc(CO)c(CO)c1O` [Vitamin B6, Pyridoxine], in data set [2] (20 mg/day), the “dental decay during pregnancy” value was “significantly reduced the rate of dental decay during pregnancy”. Also, in data set [2] (25 mg every 8 hours for 3 days), the symptoms of nausea entry is “decrease symptoms of nausea”. The “effect on birth weight” value in data set [4] (2 mg) is listed as “sufficient to improve birth weight”. Besides, the “Tolerable Upper Limit for Pregnant Women” value (Table 12) is 100 mg.

Consider `O=C1O[C@H]([C@@H](O)CO)C(O)=C1O` [Vitamin C], for which the “risk of term PROM, RR” value in data set [2] (Cochrane meta-analysis, vitamin C alone, 170 participants) was 0.55. Besides, the “risk of preterm PROM, RR” value in data set [2] (Cochrane meta-analysis, vitamin C alone, 1282 participants, five studies) is 0.66. In data set [2] (Mexico, 100 mg/day (vs. 29%)), the “rate of urinary tract infections during pregnancy” value is reported as 13%. In addition, in data set [2] (Uganda, 400 mg (vs. 28% for placebo (so in the source))), the hospitalization during pregnancy is listed as 42%. Besides, the “infant pulmonary function and wheezing” value in data set [4] (500 mg/day) is “improved infant pulmonary function and significantly decreased wheezing through age 1 year”. Moreover, the “maintenance of vitamin C concentrations” value in data set [3] (100 mg supplementation) is on record as “enough to maintain a constant leukocyte concentration (storage) of vitamin C, but not enough to maintain plasma concentrations”. Further, the “plasma level as % of level at 2500 mg” value in data set [3] (steady-state 100 mg/day) is “approximately 79%”; in data set [3] (steady-state 200 mg/day), ~88%; in data set [3] (steady-state 400 mg/day), ~95%; in data set [3] (steady-state 1000 mg/day), ~97%. Also, the “Tolerable Upper Limit for Pregnant Women” value (Table 12) is 2000 mg.

For the molecule `C=C1CCC(O)CC1=CC=C1CCCC2(C)C1CCC2C(C)CCCC(C)C` (stereo not shown) [Vitamin D], the “reduction of risk of preeclampsia” value in data set [2] (400-600 IU/day during pregnancy, after confounder adjustment) was 29%. The “rate of maternal secondary hyperparathyroidism” value in data set [2] (800 IU/day (from 27%)) is reported as 10%. Also, in data set [4] (combined analysis of two studies, 2400 IU/day and 4000 IU/day), the “asthma/recurrent wheeze at 0-3 yrs, adjusted OR” value is given as 0.74. Also, in data set [3] (2000-4000 IU/day), the “blood levels of vitamin D” value is listed as “higher blood levels than just 400 IU/day”. Under “Table 12”, the “Tolerable Upper Limit for Pregnant Women” value is 4000 IU.

Take Vitamin E: the “risk of congenital heart defects, times higher” value in data set [6] is on record as 5-9. Further, the “risk of placental abruption, RR” value in data set [2] (Cochrane, alpha-tocopherol 200-800 IU with other supplements, 7 trials, 14,922 participants) was 0.64. Further, the “rate of preterm births” value in data set [4] (about 450 mg/day (about 675 IU/day), non-randomized (vs. 9.3%)) was 6.6%. Besides, in data set [4] (approximately 200-600 mg/day (vs. 10.4% unsupplemented)), the “rate of preterm births in women with preeclampsia” value is on record as 8.6%. The “increase of vitamin E levels by third trimester” value in data set [3] (30 IU, US) is recorded as 50%. For the setting “Table 12”, the “Tolerable Upper Limit for Pregnant Women” value is listed as 1000 mg.

chromium picolinate: the “comparison of chromium forms” value in data set [1] (setting [7]) is “the form with the greatest effects on glucose and triglyceride levels”.
